Test results published in BindingDB's records for doi:10.1021/jm010087e (The University of Western Australia, 2001).

Assay: Inhibitory activity against clostridium histolyticum collagenase

**Q.** With CC(C(=O)O)N(Cc1ccccc1[N+](=O)[O-])Sc1ccc([N+](=O)[O-])cc1[N+](=O)[O-] (stereo unspecified) [2-[(2,4-Dinitro-phenylsulfanyl)-(2-nitro-benzyl)-amino]-propionic acid] as the molecule, how does the Ki read?
**A.** 5200 nM

**Q.** Which Ki does the source give for CC(C(=O)O)N(Cc1ccccc1[N+](=O)[O-])C(=O)Nc1cccc2ccccc12 (stereo unspecified) [2-[3-Naphthalen-1-yl-1-(2-nitro-benzyl)-ureido]-propionic acid] here?
**A.** 5000 nM

**Q.** With CC(C(=O)O)N(Cc1ccccc1[N+](=O)[O-])C(=O)NS(=O)(=O)c1ccccc1 (stereo unspecified) [2-((2-nitrobenzyl){[(phenylsulfonyl)amino]carbonyl}amino)propanoic acid] as the molecule, how does the Ki read?
**A.** 3600 nM

**Q.** Which Ki does the source give for CC(C(=O)O)N(Cc1ccccc1[N+](=O)[O-])S(=O)(=O)C(F)(F)F (stereo unspecified) [2-[(2-Nitro-benzyl)-trifluoromethanesulfonyl-amino]-propionic acid] here?
**A.** 5100 nM

**Q.** Which Ki does the source give for CC(C(=O)O)N(Cc1ccccc1[N+](=O)[O-])C(=S)NC(=O)c1ccccc1 (stereo unspecified) [2-[3-Benzoyl-1-(2-nitro-benzyl)-thioureido]-propionic acid] here?
**A.** 700 nM

**Q.** For CC(C(=O)NO)N(Cc1ccccc1[N+](=O)[O-])S(=O)(=O)c1cccc(C(F)(F)F)c1 (stereo unspecified) [N-Hydroxy-2-[(2-nitro-benzyl)-(3-trifluoromethyl-benzenesulfonyl)-amino]-propionamide], which Ki is on record?
**A.** 5 nM

**Q.** With CC(C(=O)O)N(Cc1ccccc1[N+](=O)[O-])S(=O)(=O)c1cc(Cl)cc(Cl)c1O (stereo unspecified) [2-[(3,5-Dichloro-2-hydroxy-benzenesulfonyl)-(2-nitro-benzyl)-amino]-propionic acid] as the molecule, how does the Ki read?
**A.** 2700 nM

**Q.** With CC(C(=O)NO)N(Cc1ccccc1[N+](=O)[O-])S(=O)(=O)C(Cl)(Cl)Cl (stereo unspecified) [N-Hydroxy-2-[(2-nitro-benzyl)-trichloromethanesulfonyl-amino]-propionamide] as the molecule, how does the Ki read?
**A.** 64 nM

**Q.** With CC(C(=O)O)N(Cc1ccccc1[N+](=O)[O-])S(=O)(=O)c1cccs1 (stereo unspecified) [2-[(2-Nitro-benzyl)-(thiophene-2-sulfonyl)-amino]-propionic acid] as the molecule, how does the Ki read?
**A.** 2000 nM

**Q.** Which Ki does the source give for CC(C(=O)NO)N(Cc1ccccc1[N+](=O)[O-])S(=O)(=O)c1ccc2ccccc2c1 (stereo unspecified) [N-Hydroxy-2-[(naphthalene-2-sulfonyl)-(2-nitro-benzyl)-amino]-propionamide] here?
**A.** 8 nM

**Q.** With CC(C(=O)NO)N(Cc1ccccc1[N+](=O)[O-])C(=O)Nc1cccc(Cl)c1 (stereo unspecified) [2-[3-(3-Chloro-phenyl)-1-(2-nitro-benzyl)-ureido]-N-hydroxy-propionamide] as the molecule, how does the Ki read?
**A.** 17 nM

**Q.** For CC(C(=O)O)N(Cc1ccccc1[N+](=O)[O-])S(=O)(=O)c1ccc(Cl)cc1 (stereo unspecified) [2-[(4-Chloro-benzenesulfonyl)-(2-nitro-benzyl)-amino]-propionic acid], which Ki is on record?
**A.** 11000 nM

**Q.** With CC(C(=O)NO)N(Cc1ccccc1[N+](=O)[O-])S(=O)(=O)N(C)C (stereo unspecified) [2-[[(dimethylamino)sulfonyl](2-nitrobenzyl)amino]-N-hydroxypropanamide] as the molecule, how does the Ki read?
**A.** 79 nM

**Q.** With CC(C(=O)O)N(Cc1ccccc1[N+](=O)[O-])S(=O)(=O)c1ccc(Br)cc1 (stereo unspecified) [2-[(4-Bromo-benzenesulfonyl)-(2-nitro-benzyl)-amino]-propionic acid] as the molecule, how does the Ki read?
**A.** 10000 nM

**Q.** For CC(C(=O)NO)N(Cc1ccccc1[N+](=O)[O-])S(=O)(=O)c1cccs1 (stereo unspecified) [N-Hydroxy-2-[(2-nitro-benzyl)-(thiophene-2-sulfonyl)-amino]-propionamide], which Ki is on record?
**A.** 10 nM

**Q.** For CC(C(=O)O)N(Cc1ccccc1[N+](=O)[O-])S(=O)(=O)c1cccc(C(F)(F)F)c1 (stereo unspecified) [2-[(2-Nitro-benzyl)-(3-trifluoromethyl-benzenesulfonyl)-amino]-propionic acid], which Ki is on record?
**A.** 400 nM

**Q.** Which Ki does the source give for CC(C(=O)O)N(Cc1ccccc1[N+](=O)[O-])S(=O)(=O)c1cccc2cccnc12 (stereo unspecified) [2-[(2-Nitro-benzyl)-(quinoline-8-sulfonyl)-amino]-propionic acid] here?
**A.** 2000 nM

**Q.** Which Ki does the source give for CC(C(=O)O)N(Cc1ccccc1[N+](=O)[O-])S(=O)(=O)c1ccc(F)cc1 (stereo unspecified) [2-[(4-Fluoro-benzenesulfonyl)-(2-nitro-benzyl)-amino]-propionic acid] here?
**A.** 12000 nM

**Q.** With Cc1ccc(S(=O)(=O)N(Cc2ccccc2[N+](=O)[O-])C(C)C(=O)O)cc1 (stereo unspecified) [2-[(2-Nitro-benzyl)-(toluene-4-sulfonyl)-amino]-propionic acid] as the molecule, how does the Ki read?
**A.** 17000 nM

**Q.** Which Ki does the source give for COc1ccc(S(=O)(=O)N(Cc2ccccc2[N+](=O)[O-])C(C)C(=O)NO)cc1NC(=O)OC(C)(C)C (stereo unspecified) [{5-[(1-Hydroxycarbamoyl-ethyl)-(2-nitro-benzyl)-sulfamoyl]-2-methoxy-phenyl}-carbamic acid tert-butyl ester] here?
**A.** 9 nM

**Q.** Which Ki does the source give for CC(C(=O)NO)N(Cc1ccccc1[N+](=O)[O-])S(=O)(=O)c1cccc2cccnc12 (stereo unspecified) [N-Hydroxy-2-[(2-nitro-benzyl)-(quinoline-8-sulfonyl)-amino]-propionamide] here?
**A.** 9 nM

**Q.** With CC(=O)c1ccc(S(=O)(=O)N(Cc2ccccc2[N+](=O)[O-])C(C)C(=O)NO)cc1 (stereo unspecified) [2-[(4-Acetyl-benzenesulfonyl)-(2-nitro-benzyl)-amino]-N-hydroxy-propionamide] as the molecule, how does the Ki read?
**A.** 10 nM

**Q.** With CC(C(=O)O)N(Cc1ccccc1[N+](=O)[O-])S(=O)(=O)Cc1ccccc1 (stereo unspecified) [2-[(2-Nitro-benzyl)-phenylmethanesulfonyl-amino]-propionic acid] as the molecule, how does the Ki read?
**A.** 18000 nM

**Q.** For CC(C(=O)NO)N(Cc1ccccc1[N+](=O)[O-])S(=O)(=O)c1cccc(C(=O)O)c1 (stereo unspecified) [3-[(1-Hydroxycarbamoyl-ethyl)-(2-nitro-benzyl)-sulfamoyl]-benzoic acid], which Ki is on record?
**A.** 8 nM

**Q.** For CC(C(=O)NO)N(Cc1ccccc1[N+](=O)[O-])C(=O)Nc1cccc2ccccc12 (stereo unspecified) [N-Hydroxy-2-[3-naphthalen-1-yl-1-(2-nitro-benzyl)-ureido]-propionamide], which Ki is on record?
**A.** 10 nM

**Q.** For CC(C(=O)O)N(Cc1ccccc1[N+](=O)[O-])S(=O)(=O)c1cccc(NC(=O)OC(C)(C)C)c1 (stereo unspecified) [2-[(3-tert-Butoxycarbonylamino-benzenesulfonyl)-(2-nitro-benzyl)-amino]-propionic acid], which Ki is on record?
**A.** 2500 nM

**Q.** Which Ki does the source give for Cc1cc(C)c(S(=O)(=O)N(Cc2ccccc2[N+](=O)[O-])C(C)C(=O)O)c(C)c1 (stereo unspecified) [2-[(2-Nitro-benzyl)-(2,4,6-trimethyl-benzenesulfonyl)-amino]-propionic acid] here?
**A.** 6000 nM

**Q.** Which Ki does the source give for CC(C(=O)NO)N(Cc1ccccc1[N+](=O)[O-])S(=O)(=O)c1ccc(F)cc1 (stereo unspecified) [2-[(4-Fluoro-benzenesulfonyl)-(2-nitro-benzyl)-amino]-N-hydroxy-propionamide] here?
**A.** 30 nM

**Q.** Which Ki does the source give for COc1ccc(S(=O)(=O)N(Cc2ccccc2[N+](=O)[O-])C(C)C(=O)NO)cc1 (stereo unspecified) [2-(N-(2-nitrobenzyl)-4-methoxyphenylsulfonamido)-N-hydroxypropanamide] here?
**A.** 19 nM

**Q.** Which Ki does the source give for CC(C(=O)O)N(Cc1ccccc1[N+](=O)[O-])S(=O)(=O)c1ccc([N+](=O)[O-])c(Cl)c1 (stereo unspecified) [2-[(3-Chloro-4-nitro-benzenesulfonyl)-(2-nitro-benzyl)-amino]-propionic acid] here?
**A.** 3100 nM

**Q.** Which Ki does the source give for CC(C(=O)NO)N(Cc1ccccc1[N+](=O)[O-])S(=O)(=O)Cc1ccccc1 (stereo unspecified) [N-Hydroxy-2-[(2-nitro-benzyl)-phenylmethanesulfonyl-amino]-propionamide] here?
**A.** 55 nM

**Q.** Which Ki does the source give for Cc1ccccc1S(=O)(=O)NC(=O)N(Cc1ccccc1[N+](=O)[O-])C(C)C(=O)NO (stereo unspecified) [N-hydroxy-2-[({[(2-methylphenyl)sulfonyl]amino}carbonyl)(2-nitrobenzyl)amino]propanamide] here?
**A.** 9 nM

**Q.** For CC(C(=O)NO)N(Cc1ccccc1[N+](=O)[O-])S(=O)(=O)c1cccc2ccccc12 (stereo unspecified) [N-Hydroxy-2-[(naphthalene-1-sulfonyl)-(2-nitro-benzyl)-amino]-propionamide], which Ki is on record?
**A.** 6 nM

**Q.** With CC(C(=O)O)N(Cc1ccccc1[N+](=O)[O-])S(=O)(=O)c1ccccc1[N+](=O)[O-] (stereo unspecified) [2-[(2-Nitro-benzenesulfonyl)-(2-nitro-benzyl)-amino]-propionic acid] as the molecule, how does the Ki read?
**A.** 4400 nM

**Q.** With CC(C(=O)O)N(Cc1ccccc1[N+](=O)[O-])S(C)(=O)=O (stereo unspecified) [2-[Methanesulfonyl-(2-nitro-benzyl)-amino]-propionic acid] as the molecule, how does the Ki read?
**A.** 22000 nM

**Q.** With CC(C(=O)NO)N(Cc1ccccc1[N+](=O)[O-])S(=O)(=O)c1cc(Cl)cc(Cl)c1O (stereo unspecified) [2-[(3,5-Dichloro-2-hydroxy-benzenesulfonyl)-(2-nitro-benzyl)-amino]-N-hydroxy-propionamide] as the molecule, how does the Ki read?
**A.** 10 nM

**Q.** With CC(=O)Nc1ccc(S(=O)(=O)N(Cc2ccccc2[N+](=O)[O-])C(C)C(=O)O)cc1 (stereo unspecified) [2-[(4-Acetylamino-benzenesulfonyl)-(2-nitro-benzyl)-amino]-propionic acid] as the molecule, how does the Ki read?
**A.** 3300 nM

**Q.** With COc1ccc(S(=O)(=O)N(Cc2ccccc2[N+](=O)[O-])C(C)C(=O)O)cc1NC(=O)OC(C)(C)C (stereo unspecified) [2-[(3-tert-Butoxycarbonylamino-4-methoxy-benzenesulfonyl)-(2-nitro-benzyl)-amino]-propionic acid] as the molecule, how does the Ki read?
**A.** 2500 nM

**Q.** Which Ki does the source give for CC(C(=O)NO)N(Cc1ccccc1[N+](=O)[O-])S(=O)(=O)c1ccc(Cl)cc1 (stereo unspecified) [2-[(4-Chloro-benzenesulfonyl)-(2-nitro-benzyl)-amino]-N-hydroxy-propionamide] here?
**A.** 32 nM

**Q.** For CC(C(=O)O)N(Cc1ccccc1[N+](=O)[O-])S(=O)(=O)c1ccc(I)cc1 (stereo unspecified) [2-[(4-Iodo-benzenesulfonyl)-(2-nitro-benzyl)-amino]-propionic acid], which Ki is on record?
**A.** 11000 nM

**Q.** With CC(C(=O)NO)N(Cc1ccccc1[N+](=O)[O-])C(=O)Nc1ccc(F)cc1 (stereo unspecified) [2-[3-(4-Fluoro-phenyl)-1-(2-nitro-benzyl)-ureido]-N-hydroxy-propionamide] as the molecule, how does the Ki read?
**A.** 15 nM

**Q.** Which Ki does the source give for CC(C(=O)NO)N(Cc1ccccc1[N+](=O)[O-])C(=O)NS(=O)(=O)c1ccc(F)cc1 (stereo unspecified) [2-[({[(4-fluorophenyl)sulfonyl]amino}carbonyl)(2-nitrobenzyl)amino]-N-hydroxypropanamide] here?
**A.** 8 nM

**Q.** Which Ki does the source give for CC(C(=O)O)N(Cc1ccccc1[N+](=O)[O-])S(=O)(=O)c1ccccc1 (stereo unspecified) [2-[Benzenesulfonyl-(2-nitro-benzyl)-amino]-propionic acid] here?
**A.** 27000 nM

**Q.** Which Ki does the source give for CC(C(=O)O)N(Cc1ccccc1[N+](=O)[O-])S(=O)(=O)c1cc(Cl)ccc1Cl (stereo unspecified) [2-[(2,5-Dichloro-benzenesulfonyl)-(2-nitro-benzyl)-amino]-propionic acid] here?
**A.** 3400 nM

**Q.** For CC(C(=O)NO)N(Cc1ccccc1[N+](=O)[O-])Sc1ccc([N+](=O)[O-])cc1[N+](=O)[O-] (stereo unspecified) [2-[(2,4-Dinitro-phenylsulfanyl)-(2-nitro-benzyl)-amino]-N-hydroxy-propionamide], which Ki is on record?
**A.** 9 nM

**Q.** Which Ki does the source give for CC(C(=O)NO)N(Cc1ccccc1[N+](=O)[O-])S(=O)(=O)c1ccc(I)cc1 (stereo unspecified) [N-Hydroxy-2-[(4-iodo-benzenesulfonyl)-(2-nitro-benzyl)-amino]-propionamide] here?
**A.** 34 nM
